According to ChEMBL document CHEMBL3351459, “Present status of quinoxaline motifs: excellent pathfinders in therapeutic medicine” (Eur J Med Chem, 2014):
Converted amounts (≈) assume the structure as drawn.

Columns and labels:
[1] = test system: Mycobacterium tuberculosis; experiment: Antimycobacterial activity against Mycobacterium tuberculosis H37Rv; format: functional
[2] = test system: Candida; experiment: Antifungal activity against Candida assessed as growth inhibition; format: functional
[3] = test system: Human immunodeficiency virus 1; experiment: Antiviral activity against HIV1 3B infected in human MT4 cells assessed as inhibition of virus-induced cytopathic effect after 5 days by MTT assay; format: functional, organism-based; settings: Human immunodeficiency virus 1, 3B, MT4, 120 h
[4] = Cytotoxicity against human MT4 cells assessed as reduction cell viability after 5 days by MTT assay; format: cell-based
[5] = Cytotoxicity against human HCT15 cells; format: functional, cell-based; settings: HCT-15
[6] = Cytotoxicity against human SKOV3 cells; format: functional, cell-based; settings: SK-OV-3
[7] = test system: T47D; experiment: Cytotoxicity against human T47D cells; format: functional, cell-based
[8] = test system: MDA-MB-468; experiment: Cytotoxicity against human MDA-MB-468 cells; format: functional, cell-based
[9] = test system: Trichomonas vaginalis; experiment: […] activity against Trichomonas vaginalis assessed as growth inhibition after 24 hrs; format: functional
[10] = test system: Plasmodium falciparum; experiment: Antimalarial activity against Plasmodium falciparum; format: functional, organism-based
[11] = test system: Leishmania infantum; experiment: Antileishmanial activity against Leishmania infantum; format: functional, organism-based
[12] = test system: Leishmania amazonensis; experiment: Antileishmanial activity against Leishmania amazonensis; format: functional, organism-based
[13] = test system: Leishmania infantum; experiment: Leishmanicidal activity against Leishmania infantum; format: functional, organism-based
[14] = test system: Human immunodeficiency virus 1; experiment: Antiviral activity against Human immunodeficiency virus 1; format: functional, organism-based
[15] = test system: Rattus norvegicus; experiment: Anti-inflammatory activity in Wistar rat at 100 mg/kg assessed as protection against edema formation dosed 1 hr before carrageenan challenge measured at end of 3rd hr by plethysmography; format: functional
[16] = biological target: SRSF protein kinase 1 (Homo sapiens, UniProt Q96SB4); experiment: Inhibition of SRPK1 kinase (unknown origin)
Sequence of SRSF protein kinase 1 (Q96SB4 whole entry): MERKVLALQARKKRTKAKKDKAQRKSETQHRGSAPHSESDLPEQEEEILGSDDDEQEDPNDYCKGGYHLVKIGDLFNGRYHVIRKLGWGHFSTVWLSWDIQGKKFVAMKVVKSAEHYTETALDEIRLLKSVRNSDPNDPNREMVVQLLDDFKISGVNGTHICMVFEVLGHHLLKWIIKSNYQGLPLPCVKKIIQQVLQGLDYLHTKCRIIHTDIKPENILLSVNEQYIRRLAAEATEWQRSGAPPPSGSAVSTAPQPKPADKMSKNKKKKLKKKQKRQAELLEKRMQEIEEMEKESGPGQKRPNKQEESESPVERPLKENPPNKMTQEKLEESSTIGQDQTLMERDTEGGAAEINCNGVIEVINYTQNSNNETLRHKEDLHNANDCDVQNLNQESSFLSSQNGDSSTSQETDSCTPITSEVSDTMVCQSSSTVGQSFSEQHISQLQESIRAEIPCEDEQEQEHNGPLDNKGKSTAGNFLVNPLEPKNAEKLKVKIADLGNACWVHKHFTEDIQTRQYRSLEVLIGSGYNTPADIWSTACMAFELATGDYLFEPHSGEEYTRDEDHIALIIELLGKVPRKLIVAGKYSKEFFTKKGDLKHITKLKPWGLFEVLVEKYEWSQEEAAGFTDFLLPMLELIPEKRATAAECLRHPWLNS

[17] = Drug elimination in pig at 50 ppm; format: ADME, organism-based, Sus scrofa; settings: in vivo, read-out: Drug excretion
[18] = Primary phase half life in im dosed goat; format: ADME, organism-based, Capra hircus; settings: in vivo, read-out: alphat1/2 (converted)
[19] = Elimination half life in iv dosed rat; format: ADME, organism-based; settings: in vivo, read-out: beta t1/2 (converted)
[20] = Elimination half life in iv dosed dog; format: ADME, organism-based, Canis lupus familiaris; settings: in vivo, read-out: beta t1/2 (converted)
[21] = Drug elimination in human patient kidney at starting dose of 9 mg/m2 administered as 5 or 20 mins intravenous infusion on days 1 to 5 every 21 days; format: ADME; settings: urine, read-out: Drug excretion

Cc1c(C(=O)Nc2ccccc2)[n+]([O-])c2cc(Cl)c(Cl)cc2[n+]1[O-]
IC90 [1]: < 6.25 µg/mL

O=c1[nH]c2cc3cccnc3c(Cl)c2nc1CBr
MIC [2]: 31.2 µg/mL (≈ 96.3 µM)

N#Cc1c(Nc2ccc(F)cc2)[n+]([O-])c2ccc(Cl)cc2[n+]1[O-]
IC90 [1]: < 6.25 µg/mL

c1ccc(-c2nc3ccccc3nc2-c2ccccc2)cc1
IC50 [3]: 3.84 µg/mL (≈ 13.6 µM) | CC50 at 120 h [4]: 15.3 µg/mL (≈ 54.1 µM)

CCCCCNCc1ccc2c(c1)C(=O)c1nccnc1C2=O
IC50 [5]: 50 nM | IC50 [6]: 400 nM | IC50 [7]: 80 nM | IC50 [8]: 200 nM

Cc1c(NCc2ccc(Cl)c(Cl)c2)[n+]([O-])c2cc(F)c(F)cc2[n+]1[O-]
MIC [9]: 6.25 µg/mL (≈ 16.2 µM)

[O-][n+]1c(Cl)c(OC2CCCCC2)nc2ccc(F)cc21
IC50 [10]: 4100 nM

CCCNC(=O)c1c(C)[n+]([O-])c2ccc(Cl)cc2[n+]1[O-]
IC90 [1]: < 0.19 µg/mL

N#Cc1c(NC(=O)C2CCCCC2)[n+]([O-])c2ccc(Cl)cc2[n+]1[O-]
IC50 [11]: 2500 nM

N#Cc1c(NC(=O)CCCCl)[n+]([O-])c2ccc(Cl)cc2[n+]1[O-]
IC50 [12]: 700 nM

N#Cc1c(NC(=O)N2CCN(c3ccc(C(F)(F)F)cc3)CC2)[n+]([O-])c2ccc(Cl)cc2[n+]1[O-]
IC50 [13]: 5700 nM

C=CCCCOc1cnc2cc(C)c(C)cc2n1
EC50 [14]: 0.22 µg/mL (≈ 0.908 µM)

Cc1cc2ncc(=O)n(CC(O)CO)c2cc1C (centres undefined)
EC50 [14]: 0.15 µg/mL (≈ 0.604 µM)

Cc1nc2ccccc2nc1OCC(=O)N/N=C/c1ccc(Cl)cc1
inhibition in vivo at 100 mg/kg [15]: 65.9%

O=C(O)c1ccc2cc3nc(-c4cccs4)c(-c4cccs4)nc3cc2c1
IC50 [16]: 40 nM

COC(=O)N/N=C/c1c[n+]([O-])c2ccccc2[n+]1[O-] [CARBADOX]
dose excreted [17]: 90%

CC(=O)c1c(C)[n+]([O-])c2ccccc2[n+]1[O-] [MEQUINDOX]
half-life [18]: 0.28 h

C[C@@H](Oc1ccc(Oc2cnc3ccc(Cl)cc3n2)cc1)C(=O)O [R(+)XK469]
half-life [19]: 13.5 h | half-life [20]: 13.2 h | dose excreted [21]: 7%
